Reference: article PMC10671849, “Synthesis and Evaluation of Marine-Inspired Compounds Result in Hybrids with Antitrypanosomal and Antileishmanial Activities” (Marine Drugs, 2023)
Values after ≈ are worked out from the molar mass of the structure shown. Like-named read-outs stand apart in the source and are kept apart here.

Assays:
[1] = tested on: Escherichia coli ATCC 25922; assay: Antibacterial broth microdilution (CLSI M100-S25), MIC/MLC; format: cell-based
Method: (§1) All tested compounds (9a–9d, 10a–10c, 13, 14, and eugenol (1)) were prepared in DMSO (Sigma-Aldrich, St. Louis, MO, USA) at a concentration of 10 mg/mL. The reference drugs used (voriconazole (Sigma-Aldrich, St. Louis, MO, USA) for fungi and quality control; gentamicin (Sigma-Aldrich, St. Louis, MO, USA) for bacterial and quality control) were prepared at 6.4 mg/mL. The stock solutions of the compounds were stored at –20 °C until immediately before the assays and then were diluted in fresh culture medium, RPMI-1640 medium (Biochrom AG, Berlin, Germany) buffered with 3-(N-morpholino)propanesulfonic acid (MOPS—Sigma-Aldrich, St. Louis, MO, USA) for fungi and cation-adjusted Mueller–Hinton broth (MHBII—Becton Dickinson, France) for bacteria, henceforth referred to as RPMI and MHB, respectively.
(§2) Fungal strains, including reference strains and clinical isolates, were used for the study of the antifungal activity: a yeast reference strain from American Type Culture Collection (ATCC), Candida albicans ATCC 10231; filamentous fungi reference strain Aspergillus fumigatus ATCC 240305; and a clinical isolate of dermatophytes Trichophyton rubrum FF5. Candida krusei ATCC 6258 was used as a quality control. All fungal strains were stored in Sabouraud dextrose broth (SDB—Bio-Mèrieux, Marcy L’Etoile, France) with glycerol (20%) at −80 °C and were subcultured in Sabouraud dextrose agar (SDA—Bio-Mèrieux, Marcy L’Etoile, France) for 24–72 h (yeasts and A. fumigatus) or 5–7 days (T. rubrum) before each assay to obtain optimal growth and purity conditions. Two bacteria strains were used, one Gram positive and one Gram negative: Staphylococcus aureus ATCC 25923 and Escherichia coli ATCC 25922, respectively. The bacterial strains were stored in trypticase soy broth (TSB—Biolife, Milan, Italy) with glycerol (10%) at −80 °C and subcultured in Mueller–Hinton agar (MHA—Bio-Mèrieux, Marcy L’Etoile, France) for 24 h before each assay.
(§3) For bacteria, MICs were determined by the broth microdilution method, following the recommendations of the reference method M100-S25 [29].
(§4) Similarly, as previous described, two-fold serial dilutions of each stock solution were prepared using MHB to obtain a range of test concentrations from 16 to 512 μg/mL. Bacterial cell suspensions were prepared from 24-h cultures in saline solution, and the transmittance of cell density was adjusted to 0.5 McFarland standard. Dilutions were performed using MHB to obtain cell final concentrations in the plate of 0.5–2.5 × 10^4 CFU/mL.
(§5) Plates with the prepared serial dilutions of the tested compounds were inoculated with the same volume of the bacterial suspension, and sterility, growth and DMSO controls were included in each assay. Immediately thereafter, the plates were incubated in a humid atmosphere (aerobic environment) for 18–24 h at 36 °C.
(§6) MIC values were considered the minimum concentrations that inhibited the bacterial growth by 100% compared to the growth control. The reference drug, gentamicin, was tested as a quality control, and the results were according to the norms.
(§7) A volume of 10 μL of suspension was collected from wells corresponding to the MIC and the highest following concentration and was deposited in MHA plates. The plates were incubated for 24 h at 36 °C, and the MLC was determined as the lowest concentration at which no bacterial growth was observed.

[2] = tested on: Staphylococcus aureus ATCC 25923; assay: as above; format: cell-based
Method: as §1, §2, §3, §4, §5, §6, §7

[3] = tested on: T. brucei Lister 427 bloodstream forms; assay: Anti-T. brucei activity, resazurin-based assay on bloodstream forms; format: cell-based, Trypanosoma brucei; conditions: for IC50: Trypanosoma brucei, read-out: Anti-Parasitic Activity IC50 (µM) 95% CI, T. brucei
Method: T. brucei Lister 427 bloodstream forms were grown in a humidified incubator at 37 °C and 5% CO2 in complete HMI-9 medium supplemented with 10% heat-inactivated fetal bovine serum (FBS) and 100 UI/mL penicillin/streptomycin. Parasite maintenance was performed in T25 ventilated flasks by subpassage at a concentration of 1 × 10^4/mL every 2 days in T25 ventilated flasks. Luciferase-expressing L. infantum (MHOM/MA/67/ITMAP-263) axenic amastigotes expressing episomal luciferase were maintained in MAA20 [31] at 37 °C in a 5% CO2 environment with subculture every 7 days at 1 × 10^6/mL in 5-mL T25 ventilated flasks.
The compounds’ efficacy against bloodstream-stage trypomastigotes was evaluated using a resazurin-based assay. Parasites were added to 100 µL of serial dilutions of compounds in supplemented complete medium at a cell density of 5 × 10^3/mL. As a quality control, a dose–response curve for the antitrypanosomal pentamidine was included in all the assays. The final volume of the assay was 200 µL/well. Each condition was carried out in duplicate. Following 72 h of incubation at the specific conditions for parasites, 20 […] of a 0.5 mM resazurin solution was added, and the plates were incubated for a further 4 h under the same conditions. Fluorescence was measured at 544 nm and 590 nm excitation and emission wavelength, respectively, using a Synergy 2 Multi-Mode Reader (Biotek, Winooski, VT, USA). The results are shown as % of parasite growth inhibition compared to control (untreated parasites) and represent the average of at least three independent experiments. The effect was evaluated by the determination of the IC50 value (concentration required to inhibit growth in 50%) and calculated by non-linear regression curves using GraphPad Prism software, version 8.1.1 for Windows (GraphPad Software, San Diego, CA, USA).

[4] = ATCC25922, broth microdilution, 16 to 512 µg/mL, 18–24 h at 36 °C, read-out: MIC E. coli
[5] = ATCC25923, broth microdilution, 16 to 512 µg/mL, 18–24 h at 36 °C, read-out: MIC S. aureus
[6] = bloodstream forms, 72 h incubation, resazurin

Compound | MIC [1, 4] | MIC [2, 5] | IC50 [3, 6] | Anti-Parasitic Activity IC50 (µM) 95% CI, T. brucei [3, 6] | MIC ([1]; ATCC25922, second value printed after the MIC of the preceding sentence, read-out: MIC E. coli ("the only MIC evaluated")) | MIC ([2]; ATCC25923, second value printed after the MIC of the preceding sentence, read-out: MIC S. aureus ("the only MIC evaluated")) | IC50 ([3]; 72 h)
C=CCc1cc(Cn2cc(C(=O)Nc3ccc(F)cc3C(N)=O)nn2)c(O)c(OC)c1 [9c, 1-(5-allyl-2-hydroxy-3-methoxybenzyl)-N-(2-carbamoyl-4-fluorophenyl)-1H-1,2,3-triazole-4-carboxamide] | 256 to 512 mg/L (≈ 602 to 1200 µM) | 256 mg/L (≈ 602 µM) | 21 µM |  | > 512 mg/L | ≤ 512 mg/L | 
C=CCc1cc(Cn2cc(C(=O)Nc3ccc(Cl)cc3C(N)=O)nn2)c(O)c(OC)c1 [9d, 1-(5-allyl-2-hydroxy-3-methoxybenzyl)-N-(2-carbamoyl-4-chlorophenyl)-1H-1,2,3-triazole-4-carboxamide] | > 512 mg/L | > 512 mg/L | 15.9 µM |  |  |  | 
C=CCc1cc(Cn2cc(-c3nc4ccc(OC)cc4c(=O)[nH]3)nn2)c(O)c(OC)c1 [10b, 2-(1-(5-allyl-2-hydroxy-3-methoxybenzyl)-1H-1,2,3-triazol-4-yl)-6-methoxyquinazolin-4(3H)-one] | > 512 mg/L | > 512 mg/L | 19.9 µM |  |  |  | 
C=CCc1ccc(O)c(OC)c1 [Eugenol, eugenol, reference compound] | > 512 mg/L | > 512 mg/L |  |  |  |  | > 40 µM

The next lines start with results.

MIC [1, 4] | MIC [2, 5] | IC50 [3, 6] | Anti-Parasitic Activity IC50 (µM) 95% CI, T. brucei [3, 6] | MIC ([1]; ATCC25922, second value printed after the MIC of the preceding sentence, read-out: MIC E. coli ("the only MIC evaluated")) | MIC ([2]; ATCC25923, second value printed after the MIC of the preceding sentence, read-out: MIC S. aureus ("the only MIC evaluated")) | Compound | IC50 ([3]; 72 h)
> 512 mg/L | > 512 mg/L | > 40 µM | did not show detectable values of IC50 |  |  | C=CCc1cc(Cn2cc(C(=O)Nc3ccccc3C(N)=O)nn2)c(O)c(OC)c1 [9a, 1-(5-allyl-2-hydroxy-3-methoxybenzyl)-N-(2-carbamoylphenyl)-1H-1,2,3-triazole-4-carboxamide] | 
> 512 mg/L | > 512 mg/L | 16.4 µM |  |  |  | C=CCc1cc(Cn2cc(C(=O)Nc3ccc(OC)cc3C(N)=O)nn2)c(O)c(OC)c1 [9b, 1-(5-allyl-2-hydroxy-3-methoxybenzyl)-N-(2-carbamoyl-4-methoxyphenyl)-1H-1,2,3-triazole-4-carboxamide] | 
> 512 mg/L | > 512 mg/L | > 40 µM | did not show detectable values of IC50 |  |  | C=CCc1cc(Cn2cc(-c3nc4ccccc4c(=O)[nH]3)nn2)c(O)c(OC)c1 [10a, 2-(1-(5-allyl-2-hydroxy-3-methoxybenzyl)-1H-1,2,3-triazol-4-yl)quinazolin-4(3H)-one] | 
> 512 mg/L | > 512 mg/L | 11.2 µM |  |  |  | C=CCc1cc(Cn2cc(-c3nc4ccc(F)cc4c(=O)[nH]3)nn2)c(O)c(OC)c1 [10c, 2-(1-(5-allyl-2-hydroxy-3-methoxybenzyl)-1H-1,2,3-triazol-4-yl)-6-fluoroquinazolin-4(3H)-one] | 
> 512 mg/L | > 512 mg/L | > 40 µM |  |  |  | C=CCc1ccc(OCc2cn(CC(=O)Nc3ccccc3C(=O)O)nn2)c(OC)c1 [compound 13, 2-(2-(4-((4-allyl-2-methoxyphenoxy)methyl)-1H-1,2,3-triazol-1-yl)acetamido) benzoic acid] | 
> 512 mg/L | > 512 mg/L | 31.7 µM |  |  |  | C=CCc1cc(Cn2cc(-c3nc4ccccc4c(=O)o3)nn2)c(O)c(OC)c1 [compound 14, 2-(1-(5-allyl-2-hydroxy-3-methoxybenzyl)-1H-1,2,3-triazol-4-yl)-4H-benzo[d][1,3]oxazin-4-one] | 
